{"source": "patent US20130058977A1", "about": "“COMPOSITIONS AND METHODS RELATED TO INDUCED TOLEROGENIC DENDRITIC CELLS EXTERNALLY LOADED WITH MHC CLASS I-RESTRICTED EPITOPES” (Selecta Biosciences, Inc., priority 2011, published 2013)", "tested_on": "TCR transgenic OTI cells", "test": "External loading of MHC Class I-restricted epitopes onto itDCs, read out as Phospho-Zap-70 in OTI cells", "type": "cell-based", "settings": "dendritic cells externally loaded on ice for 30 minutes; mixed with OTI cells for 30 min at 37 C; pZap70 staining", "experimental": "Dendritic cells were externally loaded on ice for 30 minutes with MHC Class I-restricted peptides from Ovalbumin recognized by TCR transgenic OTI cells. DC were washed and mixed with OTI cells for 30 min in complete media at 37 C, 5% CO2. Cells were stained with conjugated antibodies specifically recognizing TCR. After fixation and permeabilization with paraformaldehyde and methanol, cells were labelled with monoclonal antibodies specific for the phosphorylated (activated) form of the Zeta-chain-associated protein kinase 70 (Phospho-Zap-70). Expression of pZap70 is directly proportional to the amount of stimulatory signal delivered through the TCR to T cells.", "data": [{"substance": "SINFEKL [MHC Class I-restricted peptide from Ovalbumin recognized by TCR transgenic OTI cells]", "values": [{"measurement": "loading of a MHC Class I-restricted epitope onto itDCs", "result": "successful loading"}]}]}
